In patent US20130039952A1, “CALCIPOTRIOL MONOHYDRATE NANOCRYSTALS” (LEO PHARMA A/S, priority 2009, published 2013):

Tests used:
[1] = system: IL-1α; assay: Release of IL-1α with glycerol in a calcipotriol ointment; conditions: 5%, 10% and 15% by weight of glycerol in a calcipotriol ointment
[2] = system: gene encoding cathelicidin; assay: Cathelicidin gene activation in reconstructed human epidermis, ointments; type: cell-based; conditions: 5% vs 10% or 15% by weight of glycerol in the composition
From the text: In psoriasis, the level of cathelicidin is increased in lesional skin of psoriasis patients. […] This finding has been utilized to develop an assay in which the uptake and biological activity of calcipotriol in human keratinocytes from the tested compositions has been determined by measuring the level of induction of the gene encoding cathelicidin.
Compositions A, C and D prepared as described in Example 2 above were applied topically in triplicate on reconstructed human epidermis consisting of normal human keratinocytes cultured for 12 days on 0.5 cm^2 polycarbonate filters (available from SkinEthic® Laboratories, Nice, France) in an amount of 10 μl. The tissue was treated for two days followed by separation of the epidermis from the polycarbonate filter and snap-frozen in liquid nitrogen. RNA was extracted from the cells and cDNA synthesized by conventional procedures. qPCR was then performed using the following assays from Applied Biosystems: CAMP Hs0018038_ml and GAPDH Hs99999905_ml. The expression levels of cathelicidin were normalized to GAPDH and a relative quantification was made by comparison with Daivonex® ointment.

[3] = Particle size by dynamic light scattering; type: physicochemical; conditions: Zetasizer Nano ZS90, after high pressure homogenization
From the text: The term “particle size distribution” is intended to mean the span between the smallest and largest calcipotriol monohydrate crystal as determined by dynamic light scattering (also known as photon correlation spectroscopy) using a Zetasizer Nano ZS or ZS90 according to the manufacturer's instructions (available from Malvern Instruments, UK). Dynamic light scattering determines the size of solid particles suspended in a liquid by illuminating the particles with a laser and analysing the intensity fluctuations in the scattered light resulting from the Brownian motions of the particles in the liquid. Intensity fluctuations are correlated to particle size in that larger particles move more slowly than smaller particles, i.e. the intensity fluctuation is slower.

[4] = DSC analysis of the amount of amorphous calcipotriol; type: physicochemical; conditions: two batches, DSC at 100, 300 and 500° C./min under N2
Description: The amount of amorphous calcipotriol generated in this method was determined on two batches of calcipotriol nanocrystals prepared by the method using DSC analysis at a heating rate of 100° C., 300° C. and 500° C./min. under a N2 atmosphere. The instrument used for the analysis was a Perkin Elmer DSC 8500.

[5] = M. Hannuksela et al., Contact Dermatitis 1, 1975; cited from earlier work

OCC(O)CO [glycerol]
release of IL-1α [1]: reduce the release of IL-1α in a dose-dependent manner
expression of cathelicidin / biological activity of calcipotriol [2]: potentiating the biological activity of calcipotriol

C=C1/C(=C\C=C2/CCC[C@]3(C)[C@@H]([C@H](C)/C=C/[C@@H](O)C4CC4)CC[C@@H]23)C[C@@H](O)C[C@@H]1O [calcipotriol monohydrate nanocrystals, Calcipotriol monohydrate]
mean particle size [3]: 350-400 nm
particle size distribution [3]: 200-600 nm
amount of amorphous calcipotriol [4]: only insignificant amounts of amorphous calcipotriol

CC(O)CO (stereo not drawn) [propylene glycol]
number of irritant reactions [5]: 12.5%
